Experimental data reported in patent publication US20130197080A1, “USE OF TERIFLUNOMIDE FOR TREATING MULTIPLE SCLEROSIS” (SANOFI, priority 2010, published 2013).
Where “and” joins values, the source holds several entries; their conditions need not be identical. Identical values can stand only once.

Tested on: patients with RMS
Experiment: TEMSO Phase III trial: safety and tolerability (adverse events, laboratory tests)
Conditions: for incidence of ALT increase (≧1×ULN) / incidence of ALT ≧3×ULN: laboratory; for proportion of patients with TEAEs potentially related to hypersensitivity/skin disorders: selected SMQs terms; for patients with increased ALT ≧3×ULN and total bilirubin ≧2×ULN: considered non drug-induced
[1] = 7 mg once daily oral, safety population (N = 368)
[2] = 14 mg once daily oral, safety population (N = 358)
[3] = teriflunomide treatment, occurred over the first 3 months, slightly more marked with 14 mg

Method: Following a screening phase of up to 4 weeks, eligible patients were randomized (1:1:1) to receive a once-daily oral dose of placebo or teriflunomide, 7 mg or 14 mg, for 108 weeks. Randomization was stratified by baseline EDSS score (≦3.5 and >3.5) and by trial site. Participants successfully completing the study were eligible to enter a long-term extension.
Safety was evaluated by the occurrence of adverse events reported by the patient or the investigator. Laboratory tests were performed during screening, at baseline, and then every 2 weeks for the first 24 weeks, then every 6 weeks until study completion. Physical and neurologic examinations were performed at Week 12 and then every 24 weeks. An abdominal ultrasound to assess pancreatic abnormalities was done prior to the study and then every 24 weeks.
Laboratory testing of liver function and complete blood cell count with differential were performed at baseline, then every 2 weeks for the first 24 weeks of treatment and every 6 weeks thereafter. Patients with any of the following adverse events were discontinued from the study and were subsequently followed-up: • Any confirmed increase (repeated value within 48 hours) in alanine aminotransferase (≧3×ULN) with or without increase in total bilirubin level • Any occurrence of confirmed neutrophil count less than 1.0×10^9 cells/L with or without infection • Any potentially life-threatening cytopenias detected during the follow-up of laboratory abnormalities as per the investigator's judgment
Laboratory testing of pancreatic enzymes was performed at baseline, then every 2 weeks for the first 24 weeks of treatment and every 6 weeks thereafter. An abdominal ultrasound was performed at baseline and then every 24 weeks until study completion. Any suspected abnormal ultrasound was followed up with a CT scan with contrast, or by MRI.
Serum pregnancy testing was performed at baseline, Week 10, Week 24 and then every 12 weeks thereafter. If the pregnancy test was positive, the study medication was discontinued, and the physician was required to inform the patient of the risk of pregnancy and to discuss the potential alternatives. If the patient decided to continue with their pregnancy, a washout was required. If the patient decided not to continue with their pregnancy, the study medication could be resumed 2 weeks after termination of the pregnancy.

C/C(O)=C(\C#N)C(=O)Nc1ccc(C(F)(F)F)cc1 [teriflunomide, (Z)-2-cyano-3-hydroxy-but-2-enoic acid-(4′-trifluoromethylphenyl)-amide]
Serious adverse event, Blood disorders: Anemia (7 mg (N = 368)): 1 (0.3%) n (%) | Serious adverse event, Blood disorders: Neutropenia (7 mg (N = 368)): 0 n (%) | Serious adverse event, Blood disorders: Neutrophil count decreased (7 mg (N = 368)): 0 n (%) | Serious adverse event, Hepatic and hepatobiliary disorders: Alanine aminotransferase increased (7 mg (N = 368)): 5 (1.4%) n (%) | Serious adverse event, Hepatic and hepatobiliary disorders: Hepatic enzyme increased (7 mg (N = 368)): 0 n (%) | Serious adverse event, Hepatic and hepatobiliary disorders: Hepatitis toxic (7 mg (N = 368)): 0 n (%) | Serious adverse event, Hepatic and hepatobiliary disorders: Liver injury (7 mg (N = 368)): 1 (0.3%) n (%) | Serious adverse event, Hepatic and hepatobiliary disorders: Transaminases increased (7 mg (N = 368)): 1 (0.3%) n (%) | Serious adverse event, Infections: Appendicitis (7 mg (N = 368)): 2 (0.5%) n (%) | Serious adverse event, Infections: Bacteremia (7 mg (N = 368)): 0 n (%) | Serious adverse event, Infections: Cellulitis (7 mg (N = 368)): 0 n (%) | Serious adverse event, Infections: Cytomegalovirus hepatitis (7 mg (N = 368)): 0 n (%) | Serious adverse event, Infections: Erysipelas (7 mg (N = 368)): 1 (0.3%) n (%) | Serious adverse event, Infections: Gastroenteritis (7 mg (N = 368)): 0 n (%) | Serious adverse event, Infections: Hepatitis C (7 mg (N = 368)): 0 n (%) | Serious adverse event, Infections: Herpes zoster (7 mg (N = 368)): 0 n (%) | Serious adverse event, Infections: Infected cyst (7 mg (N = 368)): 1 (0.3%) n (%) | Serious adverse event, Infections: Lung infection (7 mg (N = 368)): 0 n (%) | Serious adverse event, Infections: Pneumonia (7 mg (N = 368)): 2 (0.5%) n (%) | Serious adverse event, Infections: Pyelonephritis (7 mg (N = 368)): 0 n (%) | Serious adverse event, Infections: Renal abscess (7 mg (N = 368)): 0 n (%) | Serious adverse event, Infections: Urinary tract infection (7 mg (N = 368)): 0 n (%) | Serious adverse event, Infections: Urinary tract infection enterococcal (7 mg (N = 368)): 0 n (%) | Serious adverse event, Malignant neoplasms: Breast cancer (7 mg (N = 368)): 0 n (%) | Serious adverse event, Malignant neoplasms: Cervix carcinoma stage 0 (7 mg (N = 368)): 0 n (%) | Serious adverse event, Malignant neoplasms: Thyroid cancer (7 mg (N = 368)): 0 n (%) | Serious adverse event, Pancreatic disorders: Lipase increased (7 mg (N = 368)): 2 (0.5%) n (%) | Serious adverse event, Pancreatic disorders: Pancreatitis (7 mg (N = 368)): 0 n (%) | TEAE potentially related to hypersensitivity/skin reactions: Erythema (7 mg (N = 368)): 7 (1.9%) n (%) | TEAE potentially related to hypersensitivity/skin reactions: Pruritus (7 mg (N = 368)): 13 (3.5%) n (%) | TEAE potentially related to hypersensitivity/skin reactions: Pruritus rash (7 mg (N = 368)): 2 (0.5%) n (%) | TEAE potentially related to hypersensitivity/skin reactions: Urticaria (7 mg (N = 368)): 4 (1.1%) n (%) | Polyneuropathy incidence (7 mg group): 0.3% | TEAEs (patients) (7 mg group): 89.1% | TEAEs leading to treatment discontinuation (7 mg group): 9.8% | diarrhea leading to treatment discontinuation (7 mg group): 0.3% | hair thinning/decreased hair density leading to treatment discontinuation (7 mg group): 0.5% | incidence of serious hepatic disorders (ALT >8×ULN and/or ALT >3×ULN with total bilirubin >3 mg/dL and/or any hepatic event with seriousness criterion) (7 mg group): 1.9% | incidence of serious infections (7 mg group): 1.6% | induced abortions among pregnancies during the trial (7 mg group): 5 | nausea leading to treatment discontinuation (7 mg group): 0.3% | neutropenia disorders (patients) (7 mg group): 2.2% | patients with mild or moderate peripheral neuropathy with conduction confirmation (7 mg group): four | proportion of patients experiencing any bone marrow TEAE (7 mg group): 9.8% | proportion of patients with TEAEs related to blood pressure increase (7 mg group): 5.4% | serious TEAEs (patients) (7 mg group): 14.1% | incidence of ALT increase (≧1×ULN) (7 mg group): 54.0% | incidence of ALT ≧3×ULN (7 mg group): 6.3% | proportion of patients with TEAEs potentially related to hypersensitivity/skin disorders (7 mg group): 10.3% | neutrophil count decrease in case of neutropenia leading to treatment discontinuation (7 mg group, single patient): 8.7e+08 L⁻¹ | neutrophil count after recovery (7 mg group, single patient, three days after treatment discontinuation): 1.34e+09 L⁻¹ | patients with increased ALT ≧3×ULN and total bilirubin ≧2×ULN (7 mg group): one | Any event leading to death [1]: 0 n (%) | Any treatment emergent adverse event leading to discontinuation of study drug [1]: 36 (9.8) n (%) | Any treatment emergent serious adverse event [1]: 52 (14.1) n (%) | At least one treatment emergent adverse event [1]: 328 (89.1) n (%) | TEAE Alanine aminotransferase increased (reported as adverse event by the investigator) [1]: 44 (12.0) no. of patients (%) | TEAE Back pain [1]: 39 (10.6) no. of patients (%) | TEAE Diarrhea [1]: 54 (14.7) no. of patients (%) | TEAE Fatigue [1]: 47 (12.8) no. of patients (%) | TEAE Hair thinning/decreased hair density (MedDRA: alopecia) [1]: 38 (10.3) no. of patients (%) | TEAE Headache [1]: 81 (22.0) no. of patients (%) | TEAE Nasopharyngitis [1]: 94 (25.5) no. of patients (%) | TEAE Nausea [1]: 33 (9.0) no. of patients (%) | TEAE Pain in extremity [1]: 26 (7.1) no. of patients (%) | TEAE Urinary tract infection [1]: 27 (7.3) no. of patients (%) | Serious adverse event, Blood disorders: Anemia (14 mg (N = 358)): 0 n (%) | Serious adverse event, Blood disorders: Neutropenia (14 mg (N = 358)): 1 (0.3%) n (%) | Serious adverse event, Blood disorders: Neutrophil count decreased (14 mg (N = 358)): 1 (0.3%) n (%) | Serious adverse event, Hepatic and hepatobiliary disorders: Alanine aminotransferase increased (14 mg (N = 358)): 5 (1.4%) n (%) | Serious adverse event, Hepatic and hepatobiliary disorders: Hepatic enzyme increased (14 mg (N = 358)): 1 (0.3%) n (%) | Serious adverse event, Hepatic and hepatobiliary disorders: Hepatitis toxic (14 mg (N = 358)): 1 (0.3%) n (%) | Serious adverse event, Hepatic and hepatobiliary disorders: Liver injury (14 mg (N = 358)): 0 n (%) | Serious adverse event, Hepatic and hepatobiliary disorders: Transaminases increased (14 mg (N = 358)): 1 (0.3%) n (%) | Serious adverse event, Infections: Appendicitis (14 mg (N = 358)): 0 n (%) | Serious adverse event, Infections: Bacteremia (14 mg (N = 358)): 1 (0.3%) n (%) | Serious adverse event, Infections: Cellulitis (14 mg (N = 358)): 0 n (%) | Serious adverse event, Infections: Cytomegalovirus hepatitis (14 mg (N = 358)): 1 (0.3%) n (%) | Serious adverse event, Infections: Erysipelas (14 mg (N = 358)): 0 n (%) | Serious adverse event, Infections: Gastroenteritis (14 mg (N = 358)): 1 (0.3%) n (%) | Serious adverse event, Infections: Hepatitis C (14 mg (N = 358)): 0 n (%) | Serious adverse event, Infections: Herpes zoster (14 mg (N = 358)): 0 n (%) | Serious adverse event, Infections: Infected cyst (14 mg (N = 358)): 0 n (%) | Serious adverse event, Infections: Lung infection (14 mg (N = 358)): 0 n (%) | Serious adverse event, Infections: Pneumonia (14 mg (N = 358)): 0 n (%) | Serious adverse event, Infections: Pyelonephritis (14 mg (N = 358)): 3 (0.8%) n (%) | Serious adverse event, Infections: Renal abscess (14 mg (N = 358)): 1 (0.3%) n (%) | Serious adverse event, Infections: Urinary tract infection (14 mg (N = 358)): 1 (0.3%) n (%) | Serious adverse event, Infections: Urinary tract infection enterococcal (14 mg (N = 358)): 1 (0.3%) n (%) | Serious adverse event, Malignant neoplasms: Breast cancer (14 mg (N = 358)): 0 n (%) | Serious adverse event, Malignant neoplasms: Cervix carcinoma stage 0 (14 mg (N = 358)): 1 (0.3%) n (%) | Serious adverse event, Malignant neoplasms: Thyroid cancer (14 mg (N = 358)): 0 n (%) | Serious adverse event, Pancreatic disorders: Lipase increased (14 mg (N = 358)): 0 n (%) | Serious adverse event, Pancreatic disorders: Pancreatitis (14 mg (N = 358)): 0 n (%) | TEAE potentially related to hypersensitivity/skin reactions: Erythema (14 mg (N = 358)): 4 (1.1%) n (%) | TEAE potentially related to hypersensitivity/skin reactions: Pruritus (14 mg (N = 358)): 10 (2.8%) n (%) | TEAE potentially related to hypersensitivity/skin reactions: Pruritus rash (14 mg (N = 358)): 1 (0.3%) n (%) | TEAE potentially related to hypersensitivity/skin reactions: Urticaria (14 mg (N = 358)): 3 (0.8%) n (%) | Polyneuropathy incidence (14 mg group): 0.8% | TEAEs (patients) (14 mg group): 90.8% | TEAEs leading to treatment discontinuation (14 mg group): 10.9% | diarrhea leading to treatment discontinuation (14 mg group): 0.3% | hair thinning/decreased hair density leading to treatment discontinuation (14 mg group): 1.4% | incidence of serious hepatic disorders (ALT >8×ULN and/or ALT >3×ULN with total bilirubin >3 mg/dL and/or any hepatic event with seriousness criterion) (14 mg group): 2.5% | incidence of serious infections (14 mg group): 2.5% | induced abortions among pregnancies during the trial (14 mg group): 1 | nausea leading to treatment discontinuation (14 mg group): 0.0% | neutropenia disorders (patients) (14 mg group): 4.5% | patients who discontinued treatment due to pruritus (14 mg group): One | patients with mild or moderate peripheral neuropathy with conduction confirmation (14 mg group): six | proportion of patients experiencing any bone marrow TEAE (14 mg group): 7.5% | proportion of patients with TEAEs related to blood pressure increase (14 mg group): 5.0% | serious TEAEs (patients) (14 mg group): 15.9% | spontaneous abortions among pregnancies during the trial (14 mg group): 3 | incidence of ALT increase (≧1×ULN) (14 mg group): 57.3% | incidence of ALT ≧3×ULN (14 mg group): 6.7% | proportion of patients with TEAEs potentially related to hypersensitivity/skin disorders (14 mg group): 11.2% | neutrophil count in cases of moderate neutrophil count decrease (serious AEs) (14 mg group, two patients): 9.5e+08 L⁻¹ and 9e+08 L⁻¹ | neutrophil count after recovery (14 mg group, two patients, a few days later, treatment continuing): 2.09e+09 L⁻¹ and 3.82e+09 L⁻¹ | patients with malignant neoplasms (14 mg group, cervix carcinoma in situ (stage 0) after 1.5 years treatment): one | patients with increased ALT ≧3×ULN and total bilirubin ≧2×ULN (14 mg group): one | Any event leading to death [2]: 0 n (%) | Any treatment emergent adverse event leading to discontinuation of study drug [2]: 39 (10.9) n (%) | Any treatment emergent serious adverse event [2]: 57 (15.9) n (%) | At least one treatment emergent adverse event [2]: 325 (90.8) n (%) | TEAE Alanine aminotransferase increased (reported as adverse event by the investigator) [2]: 51 (14.2) no. of patients (%) | TEAE Back pain [2]: 41 (11.5) no. of patients (%) | TEAE Diarrhea [2]: 64 (17.9) no. of patients (%) | TEAE Fatigue [2]: 52 (14.5) no. of patients (%) | TEAE Hair thinning/decreased hair density (MedDRA: alopecia) [2]: 47 (13.1) no. of patients (%) | TEAE Headache [2]: 67 (18.7) no. of patients (%) | TEAE Nasopharyngitis [2]: 93 (26.0) no. of patients (%) | TEAE Nausea [2]: 49 (13.7) no. of patients (%) | TEAE Pain in extremity [2]: 33 (9.2) no. of patients (%) | TEAE Urinary tract infection [2]: 37 (10.3) no. of patients (%) | serious opportunistic infections (across groups): no serious opportunistic infections observed | increases in amylase and lipase (mean change from baseline) (across the three treatment groups): No increases | deaths (all groups): No deaths occurred | treatment discontinuation due to increased blood pressure (all groups): No patient discontinued treatment | neutrophil count in three cases of moderate neutropenia (on teriflunomide): 9e+08 L⁻¹ | adverse event potentially attributed to interstitial lung disease (SMQ terms) (teriflunomide groups): No adverse event | average increase in diastolic blood pressure (teriflunomide groups): < 2 mmHg | average increase in systolic blood pressure (teriflunomide groups): < 4 mmHg | mean reduction from baseline in lymphocyte counts [3]: 3e+08 L⁻¹ | mean reduction from baseline in neutrophil counts [3]: 1e+09 L⁻¹
